What all share (assay type): physicochemical
Data set [1] can be described thus: Spectral Properties of 9 in CH2Cl2, Table 3. Set-up: emax: unit not given beside the values. The settings on record: for Ff: Rhodamine 101 in EtOH as the standard.
Data set [2] is described as follows: Spectral properties (absorbance, fluorescence, quantum yield) of sulfonated BODIPY dyes 6, Table 1. Particulars: for F: Fluorescein in 0.1M NaOH as standard. From the text:
A fluorophore, according to some embodiments of the disclosure, may have a high extinction coefficient and/or a sharp, intense fluorescence emission (e.g., rivaling that of the BODIPY dyes). A fluorophore may also have single molecule detection capacity.

Data set [3] is described as follows: Fluorescence properties of water-soluble Nile Blue derivatives in aqueous media. The settings on record: for quantum yields versus I and J: pH 7.4 in aqueous media; for fwmh less than reported water-soluble Nile Blue derivatives: phosphate buffer pH 7.4, versus I and J. From the text:
A dye may include, in some embodiments, one or more of Nile Blue derivatives 17-20 (FIG. 11).

The nature of data set [4]: Water solubility of through-bond energy transfer cassettes.
The mark [5] stands for this setting: 0.1M lithium phosphate buffer (pH = 7.4).

Molecules are shown by their SMILES.

`CCC(C)Nc1c2ccc(=[N+]3CCCCC3)cc-2oc2cc(N3CCCCC3)ccc12.O=S(=O)([O-])C(F)(F)F` (racemic) [9c]: in data set [1], the If is given as 537 nm, the Imax turned out to be 456 nm, the emax turned out to be 52423 and the “fwhm (full width at half-maximum height)” value was 52 nm. In addition, in data set [1], the Ff is reported as 0.85 ± 0.01.
In the case of `CC1=[N+]2C(=Cc3c(C)cc(C)n3[B-]2(F)F)C(=O)N1C` [6a], in data set [2] (solvent MeOH), the Imax abs is on record as 477 nm, the Imax emiss came to 485 nm, the e worked out at 57286 M⁻¹ cm⁻¹ and the fwhm amounted to 19 nm. In addition, in data set [2] (solvent MeOH), the F came out at 0.89 ± 0.01.
In data set [2] (solvent MeOH), `Cc1cc(C)n2c1C=C1C(=O)N(C)C(c3ccccc3)=[N+]1[B-]2(F)F` [6b] gave an Imax abs of 490 nm, an Imax emiss of 521 nm, an e of 58684 M⁻¹ cm⁻¹ and a fwhm of 46 nm. The molecule also came in with a F in data set [2] (solvent MeOH) of 0.87 ± 0.01.
Taken in the same sequence, the figures for `Cc1cc(C)n2c1C=C1C(=O)N(C)C(c3ccc(I)cc3)=[N+]1[B-]2(F)F` [6c] were 492 nm, 532 nm, 57303 M⁻¹ cm⁻¹, 54 nm and 0.86 ± 0.02.
Take `COc1ccc(C2=[N+]3C(=Cc4c(C)cc(C)n4[B-]3(F)F)C(=O)N2C)cc1` [6d]: in data set [2] (solvent MeOH), the Imax abs is on record as 493 nm, the Imax emiss was determined as 521 nm, the e turned out to be 51269 M⁻¹ cm⁻¹ and the fwhm is recorded as 38 nm. The F in data set [2] (solvent MeOH) is listed as 0.85 ± 0.03.
Taken in the same sequence, the figures for `Cc1cc(C)n2c1C=C1C(=O)NC(c3ccccc3)=[N+]1[B-]2(F)F` [6e] were 495 nm, 531 nm, 37867 M⁻¹ cm⁻¹, 48 nm and 0.80 ± 0.01.
As for `Cc1cc(C)n2c1C=C1C(=O)N(C)C(c3ccc([N+](=O)[O-])cc3)=[N+]1[B-]2(F)F` [6f], in data set [2] (solvent Hexanes), the Imax abs is 498 nm, the Imax emiss is listed as 587 nm, the fwhm stood at 53 nm and the F is listed as 0.53 ± 0.01. In data set [2] (solvent MeOH), this molecule showed an Imax abs of 492 nm, an Imax emiss of 598 nm, an e of 44003 M⁻¹ cm⁻¹ and a fwhm of 120 nm. Further, in data set [2] (solvent MeOH), the F is recorded as 0.0004.
In data set [2] (setting [5]), `Cc1c(S(=O)(=O)[O-])c(C)n2c1C=C1C(=O)N(C)C(c3ccc(I)cc3)=[N+]1[B-]2(F)F.[Na+]` [6g] came in with an Imax abs of 481 nm, an Imax emiss of 518 nm, an e of 46461 M⁻¹ cm⁻¹ and a fwhm of 50 nm. The F in data set [2] (setting [5]) was found to be 0.87 ± 0.01. In data set [2] (solvent MeOH), this molecule displayed an Imax abs of 488 nm, an Imax emiss of 531 nm, an e of 48132 M⁻¹ cm⁻¹ and a fwhm of 53 nm. In data set [2] (solvent MeOH), this molecule showed an F of 0.88 ± 0.01.
As to `Cc1c(S(=O)(=O)O)c(C)n2c1C=C1C(=O)N(C)C(c3ccc(C#CCCCC(=O)O)cc3)=[N+]1[B-]2(F)F` [6h], in data set [2] (setting [5]), the Imax abs amounted to 482 nm, the Imax emiss was 526 nm, the e was 34766 M⁻¹ cm⁻¹ and the fwhm stood at 56 nm. In addition, in data set [2] (setting [5]), the F is given as 0.82 ± 0.01. Further, in data set [2] (solvent MeOH), the Imax abs was 488 nm, the Imax emiss was determined as 538 nm, the e stood at 35024 M⁻¹ cm⁻¹ and the fwhm came out at 58 nm. Also, the F in data set [2] (solvent MeOH) stood at 0.84 ± 0.01.
Turning to `O=S(=O)([O-])C(F)(F)F.c1cc2c(N3CCCCC3)c3ccc(=[N+]4CCCCC4)cc-3oc2cc1N1CCCCC1` [9a], in data set [1], the If was determined as 562 nm, the Imax was 491 nm, the emax is 60409 and the “fwhm (full width at half-maximum height)” value was found to be 55 nm. Moreover, the Ff in data set [1] came out at 0.14 ± 0.01.
As for `CCN(CC)c1c2ccc(=[N+]3CCCCC3)cc-2oc2cc(N3CCCCC3)ccc12.O=S(=O)([O-])C(F)(F)F` [9b], in data set [1], the If worked out at 558 nm, the Imax came to 499 nm, the emax turned out to be 50978 and the “fwhm (full width at half-maximum height)” value turned out to be 41 nm. This molecule also had a Ff in data set [1] of 0.11 ± 0.02.
Taken in the same sequence, the figures for `CC(Nc1c2ccc(=[N+]3CCCCC3)cc-2oc2cc(N3CCCCC3)ccc12)C(=O)OC(C)(C)C.O=S(=O)([O-])C(F)(F)F` (centres unmarked) [9d] were 544 nm, 462 nm, 62044, 52 nm and 0.90 ± 0.02.
Turning to `O=S(=O)([O-])C(F)(F)F.c1ccc(CSc2c3ccc(=[N+]4CCCCC4)cc-3oc3cc(N4CCCCC4)ccc23)cc1` [9e], in data set [1], the If was 619 nm, the Imax came to 598 nm, the emax was 82617 and the “fwhm (full width at half-maximum height)” value is reported as 38 nm. For the same molecule, the Ff in data set [1] was 0.79 ± 0.02.
The matching figures for `COC(=O)C1CCN(c2ccc3c(N4CCCCC4)c4ccc(=[N+]5CCC(C(=O)OC)CC5)cc-4oc3c2)CC1.O=S(=O)([O-])C(F)(F)F` (centres unmarked) [9f]: 552 nm, 482 nm, 54908, 47 nm and 0.02 ± 0.001.
For `CCN(CCCS(=O)(=O)O)c1ccc2nc3c4cc(O)ccc4c(=NCCCS(=O)(=O)O)cc-3oc2c1.Cl` [compound 17], in data set [3], the “quantum yields versus I and J” value was “improved quantum yields”; the “fwmh less than reported water-soluble Nile Blue derivatives” value is recorded as 20 nm.
As to `Cl.O=C(O)CCN(CCC(=O)O)c1ccc2nc3c4cc(O)ccc4c(=NCCCS(=O)(=O)O)cc-3oc2c1` [compound 18], in data set [3], the “quantum yields versus I and J” value was “improved quantum yields”; the “fwmh less than reported water-soluble Nile Blue derivatives” value came to 20 nm.
For the molecule `COc1ccccc1C1=[N+]2C(=C(c3ccc(-c4cn(-c5ccc(C6=C7C(C)=C(S(=O)(=O)[O-])C(C)=[N+]7[B-](F)(F)n7c(C)c(S(=O)(=O)[O-])c(C)c76)cc5)nn4)cc3OCC(=O)O)c3ccc(-c4ccccc4OC)n3[B-]2(F)F)C=C1.[Na+].[Na+]` [compound 22], the water solubility entry in data set [4] is listed as “water soluble”.

The values are drawn from patent US20090192298A1, “Through-bond energy transfer cassettes, systems and methods” (priority 2007, published 2009).
